From ChEMBL document CHEMBL2434948, “Discovery, synthesis, and characterization of an orally bioavailable, brain penetrant inhibitor of mixed lineage kinase 3” (J Med Chem, 2013)
Calls of active or inactive are those of the source. The calls are words filed in the database; no cut-off is given here.

Legend:
[1] = target: Mitogen-activated protein kinase 11 (Homo sapiens) (UniProt Q15759); assay: Inhibition of human wild type p38b at 1 uM by qPCR analysis
[2] = target: Dual specificity protein kinase CLK2 (Homo sapiens) (UniProt P49760); assay: Inhibition of human wild type CLK2 at 1 uM by qPCR analysis relative to control
Chain of Dual specificity protein kinase CLK2 (Homo sapiens) (P49760 whole entry, looked up): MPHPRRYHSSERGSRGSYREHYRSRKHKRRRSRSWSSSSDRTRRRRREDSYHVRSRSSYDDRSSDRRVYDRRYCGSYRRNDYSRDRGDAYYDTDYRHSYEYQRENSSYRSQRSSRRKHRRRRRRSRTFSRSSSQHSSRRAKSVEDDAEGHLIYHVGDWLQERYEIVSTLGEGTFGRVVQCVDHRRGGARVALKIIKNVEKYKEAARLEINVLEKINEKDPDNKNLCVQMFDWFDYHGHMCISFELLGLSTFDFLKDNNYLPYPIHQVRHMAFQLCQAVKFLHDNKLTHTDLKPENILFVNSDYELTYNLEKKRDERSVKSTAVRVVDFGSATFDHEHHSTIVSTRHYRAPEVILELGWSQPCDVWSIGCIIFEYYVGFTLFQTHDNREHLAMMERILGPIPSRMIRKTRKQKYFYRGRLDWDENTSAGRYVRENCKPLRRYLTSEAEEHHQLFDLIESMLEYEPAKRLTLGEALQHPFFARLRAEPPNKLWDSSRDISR

Brain = assay: Drug uptake in C57BL/6 mouse brain at 10 mg/kg, iv measured over 6 hrs; type: ADME, organism-based; set-up: dose 10 mg/kg, route intravenous; details: in vivo
[3] = target: Glycogen synthase kinase-3 beta (Homo sapiens, UniProt P49841)
Description: Inhibition of wild type human GSK3B by high throughput ATP-[33P] radiolabeled assay

[4] = target: RAC-alpha serine/threonine-protein kinase (Homo sapiens) (UniProt P31749); assay: Inhibition of human wild type AKT1 at 1 uM by qPCR analysis
[5] = target: Insulin-like growth factor 1 receptor (Homo sapiens, UniProt P08069)
Description: Inhibition of wild type human IGF1R by high throughput ATP-[33P] radiolabeled assay

[6] = target: Proto-oncogene tyrosine-protein kinase Src (Homo sapiens, UniProt P12931)
Description: Inhibition of wild type human SRC by high throughput ATP-[33P] radiolabeled assay

[7] = target: Non-receptor tyrosine-protein kinase TYK2 (Homo sapiens) (UniProt P29597); assay: Inhibition of human wild type TYK2 at 1 uM by qPCR analysis relative to control
Aurora kinase C = Aurora kinase C (Homo sapiens, UniProt Q9UQB9)
Description: Inhibition of wild type human Aurora kinase C kinase by high throughput ATP-[33P] radiolabeled assay

[8] = target: RAC-beta serine/threonine-protein kinase (Homo sapiens) (UniProt P31751); assay: Inhibition of human wild type AKT2 at 1 uM by qPCR analysis
[9] = target: Maternal embryonic leucine zipper kinase (Homo sapiens) (UniProt Q14680); assay: Inhibition of human wild type MELK at 1 uM by qPCR analysis relative to control
[10] = target: SRSF protein kinase 2 (Homo sapiens) (UniProt P78362); assay: Inhibition of human wild type SRPK2 at 1 uM by qPCR analysis relative to control
[11] = target: Rho-associated protein kinase 1 (Homo sapiens, UniProt Q13464); details: 1 uM
Description: Inhibition of human wild type ROCK1 at 1 uM by qPCR analysis relative to control

[12] = target: Mitogen-activated protein kinase 13 (Homo sapiens) (UniProt O15264); assay: Inhibition of human wild type p38d at 1 uM by qPCR analysis
[13] = target: Ribosomal protein S6 kinase alpha-1 (Homo sapiens) (UniProt Q15418); assay: Inhibition of human wild type RSK1 at 1 uM by qPCR analysis
[14] = target: Mast/stem cell growth factor receptor Kit (Homo sapiens) (UniProt P10721); assay: Inhibition of human wild type KIT at 1 uM by qPCR analysis relative to control
[15] = target: Mitogen-activated protein kinase kinase kinase 10 (Homo sapiens, UniProt Q02779)
Description: Inhibition of MLK2 (unknown origin)

[16] = target: T1, Mitogen-activated protein kinase 8 (Homo sapiens, UniProt P45983); assay: Inhibition of human wild type JNK1 at 1 uM by qPCR analysis relative to control
T1 sequence (P45983 whole entry): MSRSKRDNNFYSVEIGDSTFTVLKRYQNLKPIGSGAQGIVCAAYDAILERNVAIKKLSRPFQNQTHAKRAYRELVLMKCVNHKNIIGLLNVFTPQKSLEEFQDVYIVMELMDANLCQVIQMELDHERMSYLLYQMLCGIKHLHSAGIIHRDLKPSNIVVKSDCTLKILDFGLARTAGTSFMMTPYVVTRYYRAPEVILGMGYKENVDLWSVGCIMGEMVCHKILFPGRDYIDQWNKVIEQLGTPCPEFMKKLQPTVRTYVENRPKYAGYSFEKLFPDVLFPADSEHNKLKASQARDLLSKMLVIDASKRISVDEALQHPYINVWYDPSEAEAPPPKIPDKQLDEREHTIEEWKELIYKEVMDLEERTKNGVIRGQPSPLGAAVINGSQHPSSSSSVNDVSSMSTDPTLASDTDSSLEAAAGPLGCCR

[17] = target: Tyrosine-protein kinase Lck (Homo sapiens, UniProt P06239)
Description: Inhibition of wild type human LCK by high throughput ATP-[33P] radiolabeled assay

[18] = target: ALK tyrosine kinase receptor (Homo sapiens) (UniProt Q9UM73); assay: Inhibition of human wild type ALK at 1 uM by qPCR analysis relative to control
[19] = target: Mitogen-activated protein kinase kinase kinase 11 (Homo sapiens, UniProt Q16584); details: 300 nM
[20] = target: Leucine-rich repeat serine/threonine-protein kinase 2 (Homo sapiens, UniProt Q5S007)
Description: Inhibition of human wild type LRRK2 by qPCR analysis

[21] = target: Tyrosine-protein kinase SYK (Homo sapiens, UniProt P43405)
Description: Inhibition of wild type human SYK by high throughput ATP-[33P] radiolabeled assay

[22] = target: Tyrosine-protein kinase ABL1 (Homo sapiens, UniProt P00519); assay: Inhibition of human ABL1 mutant at 1 uM by qPCR analysis
[23] = target: Vascular endothelial growth factor receptor 1 (Homo sapiens, UniProt P17948)
Chain of Vascular endothelial growth factor receptor 1 (P17948 whole entry): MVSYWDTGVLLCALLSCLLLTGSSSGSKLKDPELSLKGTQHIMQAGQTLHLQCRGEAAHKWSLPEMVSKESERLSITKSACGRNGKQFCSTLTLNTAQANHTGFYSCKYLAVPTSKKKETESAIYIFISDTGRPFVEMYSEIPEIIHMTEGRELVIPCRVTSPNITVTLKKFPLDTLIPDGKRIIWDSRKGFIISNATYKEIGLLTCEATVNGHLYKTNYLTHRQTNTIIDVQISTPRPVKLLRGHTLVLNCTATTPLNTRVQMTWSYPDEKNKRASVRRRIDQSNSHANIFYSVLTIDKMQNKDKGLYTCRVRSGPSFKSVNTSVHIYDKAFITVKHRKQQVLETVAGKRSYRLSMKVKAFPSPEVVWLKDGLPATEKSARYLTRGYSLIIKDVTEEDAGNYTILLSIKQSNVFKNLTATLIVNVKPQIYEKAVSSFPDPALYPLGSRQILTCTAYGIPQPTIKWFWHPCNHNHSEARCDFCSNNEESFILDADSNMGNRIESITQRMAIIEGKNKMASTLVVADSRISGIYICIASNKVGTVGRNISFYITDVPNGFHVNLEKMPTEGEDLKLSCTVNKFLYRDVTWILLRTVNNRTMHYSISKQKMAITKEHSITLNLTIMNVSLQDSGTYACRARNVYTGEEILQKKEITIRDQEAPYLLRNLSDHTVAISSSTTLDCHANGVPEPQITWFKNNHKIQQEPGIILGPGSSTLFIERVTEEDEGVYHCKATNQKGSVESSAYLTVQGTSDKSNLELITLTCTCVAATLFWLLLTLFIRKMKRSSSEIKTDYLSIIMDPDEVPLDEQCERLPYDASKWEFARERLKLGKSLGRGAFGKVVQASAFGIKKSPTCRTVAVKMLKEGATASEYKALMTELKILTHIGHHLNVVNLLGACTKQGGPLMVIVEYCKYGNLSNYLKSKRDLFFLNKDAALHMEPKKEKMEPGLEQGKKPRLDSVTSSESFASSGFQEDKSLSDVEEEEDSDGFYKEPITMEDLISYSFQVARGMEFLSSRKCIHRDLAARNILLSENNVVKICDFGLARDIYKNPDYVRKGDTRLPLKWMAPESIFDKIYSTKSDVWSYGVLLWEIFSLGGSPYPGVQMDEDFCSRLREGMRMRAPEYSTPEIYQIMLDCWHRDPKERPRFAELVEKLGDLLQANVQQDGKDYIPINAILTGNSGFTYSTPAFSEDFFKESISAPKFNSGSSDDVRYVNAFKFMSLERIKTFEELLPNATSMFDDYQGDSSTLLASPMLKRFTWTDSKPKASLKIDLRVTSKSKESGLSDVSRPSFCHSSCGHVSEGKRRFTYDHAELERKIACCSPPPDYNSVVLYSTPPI
Description: Inhibition of wild type human FLT1 by high throughput ATP-[33P] radiolabeled assay

[24] = target: Serine/threonine-protein kinase B-raf (Homo sapiens) (UniProt P15056); assay: Inhibition of human wild type BRAF at 1 uM by qPCR analysis
[25] = target: Cyclin-dependent kinase-like 2 (Homo sapiens) (UniProt Q92772); assay: Inhibition of human wild type CDKL2 at 1 uM by qPCR analysis relative to control
Chain of Cyclin-dependent kinase-like 2 (Homo sapiens) (Q92772 whole entry): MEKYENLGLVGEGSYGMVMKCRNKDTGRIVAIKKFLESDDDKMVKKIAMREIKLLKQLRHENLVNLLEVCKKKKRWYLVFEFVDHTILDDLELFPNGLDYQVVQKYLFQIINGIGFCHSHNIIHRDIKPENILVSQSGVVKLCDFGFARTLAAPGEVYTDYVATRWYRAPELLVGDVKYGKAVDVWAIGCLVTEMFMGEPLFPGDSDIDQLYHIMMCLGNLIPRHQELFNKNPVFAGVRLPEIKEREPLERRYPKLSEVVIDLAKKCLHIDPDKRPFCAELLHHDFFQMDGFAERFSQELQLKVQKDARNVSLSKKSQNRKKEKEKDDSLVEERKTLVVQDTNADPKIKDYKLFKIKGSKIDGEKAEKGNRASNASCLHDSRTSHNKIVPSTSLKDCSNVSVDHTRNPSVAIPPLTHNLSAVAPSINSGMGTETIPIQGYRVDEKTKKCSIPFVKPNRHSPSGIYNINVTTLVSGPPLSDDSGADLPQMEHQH

[26] = target: Ribosomal protein S6 kinase alpha-6 (Homo sapiens) (UniProt Q9UK32); assay: Inhibition of human wild type RSK4 at 1 uM by qPCR analysis
[27] = target: TRAF2 and NCK-interacting protein kinase (Homo sapiens) (UniProt Q9UKE5); assay: Binding affinity to human wild type TNIK at 1 uM by qPCR analysis
[28] = target: Mitogen-activated protein kinase 14 (Homo sapiens, UniProt Q16539); assay: Inhibition of human wild type p38alpha at 1 uM by qPCR analysis
[29] = target: NUAK family SNF1-like kinase 1 (Homo sapiens) (UniProt O60285); assay: Inhibition of human wild type ARK5 at 1 uM by qPCR analysis relative to control
Chain of NUAK family SNF1-like kinase 1 (Homo sapiens) (O60285 whole entry): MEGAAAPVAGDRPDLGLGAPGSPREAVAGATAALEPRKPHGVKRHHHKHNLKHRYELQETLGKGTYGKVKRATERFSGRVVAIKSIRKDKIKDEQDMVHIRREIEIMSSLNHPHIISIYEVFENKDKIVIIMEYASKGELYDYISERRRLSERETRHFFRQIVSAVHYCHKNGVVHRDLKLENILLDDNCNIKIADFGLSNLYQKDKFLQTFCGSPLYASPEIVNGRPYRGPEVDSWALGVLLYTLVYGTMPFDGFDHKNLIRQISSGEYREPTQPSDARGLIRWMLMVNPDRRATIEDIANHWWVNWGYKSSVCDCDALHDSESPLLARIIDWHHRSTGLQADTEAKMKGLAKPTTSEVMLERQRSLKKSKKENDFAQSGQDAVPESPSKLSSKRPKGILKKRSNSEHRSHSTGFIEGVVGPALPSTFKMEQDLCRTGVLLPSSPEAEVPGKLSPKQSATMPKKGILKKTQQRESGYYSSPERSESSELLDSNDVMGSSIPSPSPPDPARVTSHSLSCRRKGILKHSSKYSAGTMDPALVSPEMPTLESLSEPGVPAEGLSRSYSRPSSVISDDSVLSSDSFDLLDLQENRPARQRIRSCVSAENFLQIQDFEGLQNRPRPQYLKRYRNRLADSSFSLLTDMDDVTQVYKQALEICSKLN

[30] = target: Inhibitor of nuclear factor kappa-B kinase subunit alpha (Homo sapiens) (UniProt O15111); assay: Inhibition of human wild type IKKalpha at 1 uM by qPCR analysis relative to control
[31] = target: Mitogen-activated protein kinase 3 (Homo sapiens) (UniProt P27361); assay: Inhibition of human wild type ERK1 at 1 uM by qPCR analysis
Chain of Mitogen-activated protein kinase 3 (Homo sapiens) (P27361 whole entry): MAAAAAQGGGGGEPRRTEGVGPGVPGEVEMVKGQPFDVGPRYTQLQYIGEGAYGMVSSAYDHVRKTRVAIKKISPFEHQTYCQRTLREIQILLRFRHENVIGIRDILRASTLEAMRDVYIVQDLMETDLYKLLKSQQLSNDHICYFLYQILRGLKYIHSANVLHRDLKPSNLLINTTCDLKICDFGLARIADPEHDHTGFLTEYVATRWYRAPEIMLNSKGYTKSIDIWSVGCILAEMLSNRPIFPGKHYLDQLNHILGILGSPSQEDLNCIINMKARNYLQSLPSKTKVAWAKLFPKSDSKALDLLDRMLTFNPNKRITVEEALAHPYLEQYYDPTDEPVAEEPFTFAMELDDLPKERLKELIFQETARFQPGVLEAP

[32] = target: Dual specificity protein kinase CLK4 (Homo sapiens) (UniProt Q9HAZ1); assay: Inhibition of human wild type CLK4 at 1 uM by qPCR analysis relative to control
[33] = target: Inhibitor of nuclear factor kappa-B kinase subunit beta (Homo sapiens) (UniProt O14920); assay: Inhibition of human wild type IKKbeta at 1 uM by qPCR analysis relative to control
[34] = target: Mitogen-activated protein kinase 12 (Homo sapiens) (UniProt P53778); assay: Inhibition of human wild type p38g at 1 uM by qPCR analysis
Chain of Mitogen-activated protein kinase 12 (Homo sapiens) (P53778 whole entry): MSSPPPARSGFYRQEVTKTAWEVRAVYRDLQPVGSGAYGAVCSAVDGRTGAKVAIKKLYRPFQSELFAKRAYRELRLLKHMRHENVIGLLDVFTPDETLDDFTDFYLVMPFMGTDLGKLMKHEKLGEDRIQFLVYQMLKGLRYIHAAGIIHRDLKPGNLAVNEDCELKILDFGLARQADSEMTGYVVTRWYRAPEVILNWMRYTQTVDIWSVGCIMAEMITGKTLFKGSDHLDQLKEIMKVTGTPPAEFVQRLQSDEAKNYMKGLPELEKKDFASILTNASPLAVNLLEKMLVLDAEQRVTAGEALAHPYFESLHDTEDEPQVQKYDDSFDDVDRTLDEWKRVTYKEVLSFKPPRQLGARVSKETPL

Aurora kinase B = Aurora kinase B (Homo sapiens, UniProt Q96GD4)
Description: Inhibition of wild type human Aurora kinase B by high throughput ATP-[33P] radiolabeled assay

[35] = target: T1, Mitogen-activated protein kinase 8
Description: Inhibition of wild type human wild type JNK1 by qPCR analysis

[36] = target: Serine/threonine-protein kinase MARK2 (Homo sapiens) (UniProt Q7KZI7); assay: Inhibition of human wild type MARK2 at 1 uM by qPCR analysis relative to control
Chain of Serine/threonine-protein kinase MARK2 (Homo sapiens) (Q7KZI7 whole entry): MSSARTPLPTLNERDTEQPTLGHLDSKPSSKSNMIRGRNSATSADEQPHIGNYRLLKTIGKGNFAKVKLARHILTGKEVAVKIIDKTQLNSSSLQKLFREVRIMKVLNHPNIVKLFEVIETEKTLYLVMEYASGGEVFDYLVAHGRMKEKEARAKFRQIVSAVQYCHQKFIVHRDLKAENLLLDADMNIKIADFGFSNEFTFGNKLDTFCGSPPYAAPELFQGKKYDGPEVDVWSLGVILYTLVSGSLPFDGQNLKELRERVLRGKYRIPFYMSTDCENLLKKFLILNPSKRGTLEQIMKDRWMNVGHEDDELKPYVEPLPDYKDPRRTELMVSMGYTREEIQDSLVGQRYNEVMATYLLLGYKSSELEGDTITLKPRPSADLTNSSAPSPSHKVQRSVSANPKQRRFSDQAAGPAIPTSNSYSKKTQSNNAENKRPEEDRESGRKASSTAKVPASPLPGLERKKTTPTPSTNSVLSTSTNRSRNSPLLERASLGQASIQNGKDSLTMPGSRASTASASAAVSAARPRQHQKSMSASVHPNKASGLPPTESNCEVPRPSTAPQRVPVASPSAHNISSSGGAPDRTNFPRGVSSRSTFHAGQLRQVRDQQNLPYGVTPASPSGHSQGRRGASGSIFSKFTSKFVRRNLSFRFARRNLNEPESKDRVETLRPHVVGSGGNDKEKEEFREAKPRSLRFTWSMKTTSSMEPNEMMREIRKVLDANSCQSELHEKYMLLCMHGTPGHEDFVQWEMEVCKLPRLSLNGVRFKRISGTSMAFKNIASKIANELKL

[37] = target: Mitogen-activated protein kinase kinase kinase 9 (Homo sapiens, UniProt P80192)
Description: Inhibition of MLK1 (unknown origin)

[38] = target: Dual specificity tyrosine-phosphorylation-regulated kinase 1B (Homo sapiens) (UniProt Q9Y463); assay: Inhibition of human wild type DYRK1B at 1 uM by qPCR analysis relative to control

In the case of CN1CCN(Cc2ccc(-c3cnc4[nH]cc(-c5ccc6[nH]ccc6c5)c4c3)cc2)CC1, the inhibition [1] is reported as “inactive”, the inhibition [2] is reported as greater than 90% and the Drug uptake (Brain) is reported as “Active”. For the same compound, the IC50 [3] was greater than 10000 nM, the inhibition [4] was “inactive” and the IC50 [5] was 307 nM. For the same compound, the IC50 [6] was 4330 nM, the inhibition [7] was greater than 90% and the IC50 (Aurora kinase C) was 290 nM. The inhibition [8] was “inactive”, the inhibition [9] was greater than 90% and the inhibition [10] was greater than 90%. For the same compound, the inhibition [11] was greater than 90%, the inhibition [12] was “inactive” and the inhibition [13] was “inactive”. The inhibition [14] was greater than 90%, the IC50 [15] was 42 nM and the inhibition [16] was 99%. The IC50 [17] was 333 nM, the inhibition [18] was greater than 90% and the inhibition [19] was greater than 50%. For the same compound, the IC50 [20] was 11 nM, the IC50 [21] was 731 nM and the inhibition [22] was “Active”. The IC50 [23] was 39 nM, the inhibition [24] was “inactive” and the inhibition [25] was greater than 90%. For the same compound, the inhibition [26] was “inactive”, the inhibition [27] was “Active” and the inhibition [28] was “inactive”. For the same compound, the inhibition [29] was greater than 90%, the inhibition [30] was greater than 90% and the inhibition [31] was “inactive”. The inhibition [32] was greater than 90%, the inhibition [33] was greater than 90% and the inhibition [34] was “inactive”. The IC50 (Aurora kinase B) was 123 nM, the IC50 [35] was 3280 nM and the inhibition [36] was 49%. It also gave an IC50 [37] of 19 nM and an inhibition [38] greater than 90%.
